In US20200038513A1, “MODULATORS OF FAK PROTEOLYSIS AND ASSOCIATED METHODS OF USE” (ARVINAS OPERATIONS, INC., priority 2018, published 2020):
Read-outs that look alike come from different tables or passages of the source.

Columns and labels:
[1] = PPB; type: in vitro ADME; details: plasma
[2] = Pharmacokinetics of intraperitoneal or intravenous injection in CD1 mice; type: in vivo; details: for Conc. (ng/mL) Mouse 2 / Conc. (ng/mL) Mouse 1 / Conc. (ng/mL) Mouse 3 / concentration at 0.25 h / concentration at 0.5 h / concentration at 1 h / concentration at 2 h / concentration at 4 h / concentration at 8 h / concentration at 24 h / concentration at 0.033 h / concentration at 0.083 h: CD1 mice plasma; for concentration at 0.25 h / concentration at 0.5 h / concentration at 1 h / concentration at 2 h / concentration at 4 h / concentration at 8 h / concentration at 24 h / AUC(0-t) / half-life / concentration at 0.033 h / concentration at 0.083 h: male, CD1, mouse, plasma
Method in brief: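 Male CD1 mice, 6-8 weeks old, 3 per group, dosed IV (5 s injection; 10% HP-b-CD, 40 mM sodium acetate, 40 mM NaCl, pH 4.5) or IP (5% EtOH, 5% Solutol HS15 in D5W). Serial dorsal metatarsal vein blood, terminal heart puncture; plasma analysed by LC/MS/MS after acetonitrile precipitation, calibration 1-2000 ng/mL.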

[3] = ip, 10 mg/kg, IP 10 mg/kg, read-out: Conc. (ng/mL) Mouse 1
[4] = ip, 10 mg/kg, IP 10 mg/kg, read-out: Conc. (ng/mL) Mouse 2
[5] = ip, 10 mg/kg, IP 10 mg/kg, read-out: Conc. (ng/mL) Mouse 3
[6] = ip, 10 mg/kg, IP 10 mg/kg, read-out: Mean
[7] = iv, 1 mg/kg, IV 1.0 mg/kg, read-out: Conc. (ng/mL) Mouse 1
[8] = iv, 1 mg/kg, IV 1.0 mg/kg, read-out: Conc. (ng/mL) Mouse 2
[9] = iv, 1 mg/kg, IV 1.0 mg/kg, read-out: Conc. (ng/mL) Mouse 3
[10] = iv, 1 mg/kg, IV 1.0 mg/kg, read-out: Mean

## Cc1ncsc1-c1ccc(CNC(=O)[C@@H]2C[C@@H](O)CN2C(=O)[C@@H](NC(=O)COCCOc2ccc(Nc3ncc(C(F)(F)F)c(NCc4cccc(N(C)S(C)(=O)=O)c4)n3)cc2)C(C)(C)C)cc1 [Compound 100, (2S,4R)-1-((S)-3,3-dimethyl-2-(2-(2-(4-((4-((3-(N-methylmethylsulfonamido)benzyl)amino)-5-(trifluoromethyl)pyrimidin-2-yl)amino)phenoxy)ethoxy)acetamido)butanoyl)-4-hydroxy-N-(4-(4-methylthiazol-5-yl)benzyl)pyrrolidine-2-carboxamide]
[1]
  fraction unbound: 0.008
[2]; IP 10 mg/kg, 24 h
  Conc. (ng/mL) Mouse 2: BLOQ
[2]; IV 1.0 mg/kg, 8 h
  Conc. (ng/mL) Mouse 1: BLOQ
  Conc. (ng/mL) Mouse 2: BLOQ
  Conc. (ng/mL) Mouse 3: BLOQ
[2]; IV 1.0 mg/kg, 24 h
  Conc. (ng/mL) Mouse 1: BLOQ
  Conc. (ng/mL) Mouse 2: BLOQ
  Conc. (ng/mL) Mouse 3: BLOQ
[2]; [3]
  concentration at 0.25 h: 252 ng/mL
  concentration at 0.5 h: 362 ng/mL
  concentration at 1 h: 648 ng/mL
  concentration at 2 h: 764 ng/mL
  concentration at 4 h: 362 ng/mL
[2]; [4]
  concentration at 0.25 h: 402 ng/mL
  concentration at 0.5 h: 467 ng/mL
  concentration at 1 h: 1550 ng/mL
  concentration at 2 h: 1750 ng/mL
  concentration at 4 h: 625 ng/mL
[2]; [5]
  concentration at 0.25 h: 374 ng/mL
  concentration at 0.5 h: 373 ng/mL
  concentration at 1 h: 2480 ng/mL
  concentration at 2 h: 1610 ng/mL
  concentration at 4 h: 510 ng/mL
[2]; [6]
  concentration at 0.25 h: 343 ng/mL
  concentration at 0.5 h: 401 ng/mL
  concentration at 1 h: 1560 ng/mL
  concentration at 2 h: 1380 ng/mL
  concentration at 4 h: 499 ng/mL
[2]; ip, 10 mg/kg, IP 10 mg/kg, 8 h, read-out: Conc. (ng/mL) Mouse 1
  concentration at 8 h: 95.4 ng/mL
[2]; ip, 10 mg/kg, IP 10 mg/kg, 8 h, read-out: Conc. (ng/mL) Mouse 2
  concentration at 8 h: 111 ng/mL
[2]; ip, 10 mg/kg, IP 10 mg/kg, 8 h, read-out: Conc. (ng/mL) Mouse 3
  concentration at 8 h: 151 ng/mL
[2]; ip, 10 mg/kg, IP 10 mg/kg, 8 h, read-out: Mean
  concentration at 8 h: 119 ng/mL
[2]; ip, 10 mg/kg, IP 10 mg/kg, 24 h, read-out: Conc. (ng/mL) Mouse 1
  concentration at 24 h: 1.35 ng/mL
[2]; ip, 10 mg/kg, IP 10 mg/kg, 24 h, read-out: Conc. (ng/mL) Mouse 3
  concentration at 24 h: 1.56 ng/mL
[2]; ip, 10 mg/kg, IP 10 mg/kg, 24 h, read-out: Mean
  concentration at 24 h: 1.46 ng/mL
[2]; ip, 10 mg/kg, read-out: AUClast (h * ng/mL) IP
  AUC(0-t): 5870 ng·h/mL
[2]; ip, 10 mg/kg, read-out: T ½ (h) IP (converted)
  half-life: 2.15 h
[2]; [7]
  concentration at 0.033 h: 1320 ng/mL
  concentration at 0.083 h: 233 ng/mL
  concentration at 0.25 h: 34.7 ng/mL
  concentration at 0.5 h: 17.4 ng/mL
  concentration at 1 h: 6.22 ng/mL
  concentration at 2 h: 3.27 ng/mL
  concentration at 4 h: 1.84 ng/mL
[2]; [8]
  concentration at 0.033 h: 1390 ng/mL
  concentration at 0.083 h: 313 ng/mL
  concentration at 0.25 h: 48.2 ng/mL
  concentration at 0.5 h: 27.1 ng/mL
  concentration at 1 h: 9.77 ng/mL
  concentration at 2 h: 5.86 ng/mL
  concentration at 4 h: 4.11 ng/mL
[2]; [9]
  concentration at 0.033 h: 1150 ng/mL
  concentration at 0.083 h: 205 ng/mL
  concentration at 0.25 h: 36.4 ng/mL
  concentration at 0.5 h: 18 ng/mL
  concentration at 1 h: 8.79 ng/mL
  concentration at 2 h: 3.98 ng/mL
  concentration at 4 h: 2.13 ng/mL
[2]; [10]
  concentration at 0.033 h: 1290 ng/mL
  concentration at 0.083 h: 250 ng/mL
  concentration at 0.25 h: 39.8 ng/mL
  concentration at 0.5 h: 20.8 ng/mL
  concentration at 1 h: 8.26 ng/mL
  concentration at 2 h: 4.37 ng/mL
  concentration at 4 h: 2.69 ng/mL
[2]; iv, 1 mg/kg, read-out: AUClast (h * ng/mL) IV
  AUC(0-t): 175 ng·h/mL
[2]; iv, 1 mg/kg, read-out: T ½ (h) IV (converted)
  half-life: 1.95 h
